# From PubChem BioAssay (NCI)
#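 Compound exposure: 48 hours, 5 concentrations, 96-well plates. At the GI50, growth is halved. At the TGI there is no net growth.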
# What was measured:
# Test in all cases: inhibition of tumour cell growth, NCI panel, 48 h
# SK-MEL-28 melanoma = tested on: SK-MEL-28 melanoma
# HCC-2998 colon = tested on: HCC-2998 colon
# MOLT-4 leukemia = tested on: MOLT-4 leukemia
# KM12 colon = tested on: KM12 colon
# NCI-H23 lung = tested on: NCI-H23 lung
# SF-268 CNS = tested on: SF-268 CNS
# LOX IMVI melanoma = tested on: LOX IMVI melanoma
# SN12C renal = tested on: SN12C renal
# HOP-92 NSCLC = tested on: HOP-92 NSCLC
# SK-OV-3 ovarian = tested on: SK-OV-3 ovarian
# HS 578T breast = tested on: HS 578T breast
# SK-MEL-5 melanoma = tested on: SK-MEL-5 melanoma
# UO-31 renal = tested on: UO-31 renal
# UACC-62 melanoma = tested on: UACC-62 melanoma
# MDA-N = tested on: MDA-N
# A498 renal = tested on: A498 renal
# HCT-116 colon = tested on: HCT-116 colon
# EKVX NSCLC = tested on: EKVX NSCLC
# SNB-19 CNS = tested on: SNB-19 CNS
# NCI-H460 lung = tested on: NCI-H460 lung
# UACC-257 melanoma = tested on: UACC-257 melanoma
# HT29 colon = tested on: HT29 colon
# ACHN renal = tested on: ACHN renal
# T-47D breast = tested on: T-47D breast
# SF-295 CNS = tested on: SF-295 CNS
# COLO 205 colon = tested on: COLO 205 colon
# TK-10 renal = tested on: TK-10 renal
# MDA-MB-435 = tested on: MDA-MB-435
# MCF7 breast = tested on: MCF7 breast
# SF-539 CNS = tested on: SF-539 CNS
# U251 CNS = tested on: U251 CNS
# DU-145 prostate = tested on: DU-145 prostate
# K-562 leukemia = tested on: K-562 leukemia
# IGROV1 ovarian = tested on: IGROV1 ovarian
# CAKI-1 renal = tested on: CAKI-1 renal
# MALME-3M melanoma = tested on: MALME-3M melanoma
# SNB-75 CNS = tested on: SNB-75 CNS
# OVCAR-4 ovarian = tested on: OVCAR-4 ovarian
# SK-MEL-2 melanoma = tested on: SK-MEL-2 melanoma
# NCI-H522 lung = tested on: NCI-H522 lung
# A549 NSCLC = tested on: A549 NSCLC
# OVCAR-8 ovarian = tested on: OVCAR-8 ovarian
# SR leukemia = tested on: SR leukemia
# MDA-MB-231 breast = tested on: MDA-MB-231 breast
# SW-620 colon = tested on: SW-620 colon
# NCI/ADR-RES ovarian = tested on: NCI/ADR-RES ovarian
# OVCAR-3 ovarian = tested on: OVCAR-3 ovarian
# BT-549 breast = tested on: BT-549 breast
# CCRF-CEM leukemia = tested on: CCRF-CEM leukemia
# 786-0 renal = tested on: 786-0 renal
# RXF 393 renal = tested on: RXF 393 renal
# PC-3 prostate = tested on: PC-3 prostate
# NCI-H226 lung = tested on: NCI-H226 lung
# HL-60(TB) leukemia = tested on: HL-60(TB) leukemia
# HCT-15 colon = tested on: HCT-15 colon
# RPMI-8226 leukemia = tested on: RPMI-8226 leukemia
# M14 melanoma = tested on: M14 melanoma
# SNB-78 CNS = tested on: SNB-78 CNS
# OVCAR-5 ovarian = tested on: OVCAR-5 ovarian
# KM20L2 colon = tested on: KM20L2 colon
# HOP-62 NSCLC = tested on: HOP-62 NSCLC
# DLD-1 colon = tested on: DLD-1 colon
# LXFL 529 NSCLC = tested on: LXFL 529 NSCLC
# DMS 273 small cell lung = tested on: DMS 273 small cell lung
smiles,measurement,setting,value
Cc1cccc2nc3cccc(C(=O)NCCC[N+](C)(CCCNC(=O)c4cccc5nc6cccc(C)c6nc45)Cc4c([N+](=O)[O-])ncn4C)c3nc12,GI50,SK-MEL-28 melanoma,403 µM
same,TGI,SK-MEL-28 melanoma,> 1100 µM
same,TGI,HCC-2998 colon,790 µM
same,GI50,MOLT-4 leukemia,8.38 µM
same,GI50,KM12 colon,17.5 µM
same,TGI,KM12 colon,> 1100 µM
same,GI50,NCI-H23 lung,370 µM
same,TGI,NCI-H23 lung,> 1100 µM
same,GI50,SF-268 CNS,19.2 µM
same,TGI,SF-268 CNS,> 1100 µM
same,TGI,LOX IMVI melanoma,18.8 µM
same,GI50,SN12C renal,150 µM
same,TGI,SN12C renal,> 1100 µM
same,GI50,HOP-92 NSCLC,> 1100 µM
same,TGI,HOP-92 NSCLC,> 1100 µM
same,GI50,SK-OV-3 ovarian,> 1100 µM
same,TGI,SK-OV-3 ovarian,> 1100 µM
same,TGI,HS 578T breast,> 1100 µM
same,GI50,SK-MEL-5 melanoma,12.1 µM
same,TGI,SK-MEL-5 melanoma,366 µM
same,GI50,UO-31 renal,48.7 µM
same,TGI,UO-31 renal,> 1100 µM
same,GI50,UACC-62 melanoma,38.8 µM
same,TGI,UACC-62 melanoma,> 1100 µM
same,GI50,MDA-N,18.1 µM
same,TGI,MDA-N,> 1100 µM
same,GI50,A498 renal,> 1100 µM
same,TGI,A498 renal,> 1100 µM
same,TGI,HCT-116 colon,> 1100 µM
same,GI50,EKVX NSCLC,443 µM
same,TGI,EKVX NSCLC,> 1100 µM
same,TGI,SNB-19 CNS,> 1100 µM
same,GI50,NCI-H460 lung,2.15 µM
same,TGI,NCI-H460 lung,257 µM
same,GI50,UACC-257 melanoma,63 µM
same,TGI,UACC-257 melanoma,> 1100 µM
same,GI50,HT29 colon,1.96 µM
same,TGI,HT29 colon,96.5 µM
same,GI50,ACHN renal,3.59 µM
same,TGI,ACHN renal,> 1100 µM
same,TGI,T-47D breast,> 1100 µM
same,GI50,SF-295 CNS,25 µM
same,TGI,SF-295 CNS,> 1100 µM
same,GI50,COLO 205 colon,184 µM
same,TGI,COLO 205 colon,> 1100 µM
same,GI50,TK-10 renal,118 µM
same,TGI,TK-10 renal,> 1100 µM
same,GI50,MDA-MB-435,191 µM
same,TGI,MDA-MB-435,> 1100 µM
same,GI50,MCF7 breast,2.34 µM
same,TGI,MCF7 breast,96.9 µM
same,GI50,SF-539 CNS,1.59 µM
same,TGI,SF-539 CNS,9.07 µM
same,GI50,U251 CNS,18.2 µM
same,TGI,U251 CNS,> 1100 µM
same,GI50,DU-145 prostate,20.8 µM
same,TGI,DU-145 prostate,> 1100 µM
same,TGI,K-562 leukemia,> 1100 µM
same,TGI,IGROV1 ovarian,> 1100 µM
same,GI50,CAKI-1 renal,107 µM
same,TGI,CAKI-1 renal,> 1100 µM
same,GI50,MALME-3M melanoma,26.2 µM
same,TGI,MALME-3M melanoma,432 µM
same,TGI,SNB-75 CNS,> 1100 µM
same,GI50,OVCAR-4 ovarian,14.8 µM
same,TGI,OVCAR-4 ovarian,> 1100 µM
same,GI50,SK-MEL-2 melanoma,260 µM
same,TGI,SK-MEL-2 melanoma,> 1100 µM
same,GI50,NCI-H522 lung,16.2 µM
same,TGI,NCI-H522 lung,> 1100 µM
same,GI50,A549 NSCLC,8.19 µM
same,TGI,A549 NSCLC,> 1100 µM
same,GI50,OVCAR-8 ovarian,4.44 µM
same,TGI,OVCAR-8 ovarian,> 1100 µM
same,TGI,SR leukemia,> 1100 µM
same,GI50,MDA-MB-231 breast,> 1100 µM
same,TGI,MDA-MB-231 breast,> 1100 µM
same,GI50,SW-620 colon,49.3 µM
same,TGI,SW-620 colon,> 1100 µM
same,GI50,NCI/ADR-RES ovarian,131 µM
same,TGI,NCI/ADR-RES ovarian,> 1100 µM
same,TGI,OVCAR-3 ovarian,> 1100 µM
same,TGI,BT-549 breast,> 1100 µM
same,TGI,CCRF-CEM leukemia,> 1100 µM
same,TGI,786-0 renal,> 1100 µM
same,GI50,RXF 393 renal,339 µM
same,TGI,RXF 393 renal,> 1100 µM
same,GI50,PC-3 prostate,6.47 µM
same,TGI,PC-3 prostate,> 1100 µM
same,GI50,NCI-H226 lung,0.11 µM
same,TGI,NCI-H226 lung,267 µM
same,GI50,HL-60(TB) leukemia,48.6 µM
same,GI50,HCT-15 colon,13.6 µM
same,TGI,HCT-15 colon,> 1100 µM
same,TGI,RPMI-8226 leukemia,0.521 µM
O=S(=O)([O-])[O-].[Cl-].[NH2-].[NH2-].[NH2-].[NH2-].[Ru+3].c1ccc(-c2cccnc2)cc1,GI50,SK-MEL-28 melanoma,> 100 µM
same,TGI,SK-MEL-28 melanoma,> 100 µM
same,GI50,HCC-2998 colon,> 100 µM
same,TGI,HCC-2998 colon,> 100 µM
same,GI50,MOLT-4 leukemia,> 100 µM
same,TGI,MOLT-4 leukemia,> 100 µM
same,GI50,KM12 colon,> 100 µM
same,TGI,KM12 colon,> 100 µM
same,GI50,NCI-H23 lung,> 100 µM
same,TGI,NCI-H23 lung,> 100 µM
same,GI50,SF-268 CNS,> 100 µM
same,TGI,SF-268 CNS,> 100 µM
same,GI50,LOX IMVI melanoma,> 100 µM
same,TGI,LOX IMVI melanoma,> 100 µM
same,GI50,SN12C renal,> 100 µM
same,TGI,SN12C renal,> 100 µM
same,GI50,HOP-92 NSCLC,> 100 µM
same,TGI,HOP-92 NSCLC,> 100 µM
same,GI50,SK-OV-3 ovarian,> 100 µM
same,TGI,SK-OV-3 ovarian,> 100 µM
same,GI50,SK-MEL-5 melanoma,> 100 µM
same,TGI,SK-MEL-5 melanoma,> 100 µM
same,GI50,UO-31 renal,> 100 µM
same,TGI,UO-31 renal,> 100 µM
same,GI50,UACC-62 melanoma,> 100 µM
same,TGI,UACC-62 melanoma,> 100 µM
same,GI50,A498 renal,> 100 µM
same,TGI,A498 renal,> 100 µM
same,GI50,HCT-116 colon,> 100 µM
same,TGI,HCT-116 colon,> 100 µM
same,GI50,EKVX NSCLC,> 100 µM
same,TGI,EKVX NSCLC,> 100 µM
same,GI50,NCI-H460 lung,> 100 µM
same,TGI,NCI-H460 lung,> 100 µM
same,GI50,UACC-257 melanoma,> 100 µM
same,TGI,UACC-257 melanoma,> 100 µM
same,GI50,HT29 colon,> 100 µM
same,TGI,HT29 colon,> 100 µM
same,GI50,ACHN renal,> 100 µM
same,TGI,ACHN renal,> 100 µM
same,GI50,SF-295 CNS,> 100 µM
same,TGI,SF-295 CNS,> 100 µM
same,GI50,COLO 205 colon,> 100 µM
same,TGI,COLO 205 colon,> 100 µM
same,GI50,TK-10 renal,> 100 µM
same,TGI,TK-10 renal,> 100 µM
same,GI50,M14 melanoma,> 100 µM
same,TGI,M14 melanoma,> 100 µM
same,GI50,SNB-78 CNS,> 100 µM
same,TGI,SNB-78 CNS,> 100 µM
same,GI50,SF-539 CNS,> 100 µM
same,TGI,SF-539 CNS,> 100 µM
same,GI50,U251 CNS,> 100 µM
same,TGI,U251 CNS,> 100 µM
same,GI50,OVCAR-5 ovarian,> 100 µM
same,TGI,OVCAR-5 ovarian,> 100 µM
same,GI50,K-562 leukemia,> 100 µM
same,TGI,K-562 leukemia,> 100 µM
same,GI50,KM20L2 colon,> 100 µM
same,TGI,KM20L2 colon,> 100 µM
same,GI50,IGROV1 ovarian,> 100 µM
same,TGI,IGROV1 ovarian,> 100 µM
same,GI50,HOP-62 NSCLC,> 100 µM
same,TGI,HOP-62 NSCLC,> 100 µM
same,GI50,CAKI-1 renal,> 100 µM
same,TGI,CAKI-1 renal,> 100 µM
same,GI50,MALME-3M melanoma,> 100 µM
same,TGI,MALME-3M melanoma,> 100 µM
same,GI50,SNB-75 CNS,88.9 µM
same,TGI,SNB-75 CNS,> 100 µM
same,GI50,OVCAR-4 ovarian,> 100 µM
same,TGI,OVCAR-4 ovarian,> 100 µM
same,GI50,SK-MEL-2 melanoma,> 100 µM
same,TGI,SK-MEL-2 melanoma,> 100 µM
same,GI50,NCI-H522 lung,> 100 µM
same,TGI,NCI-H522 lung,> 100 µM
same,GI50,A549 NSCLC,> 100 µM
same,TGI,A549 NSCLC,> 100 µM
same,GI50,OVCAR-8 ovarian,> 100 µM
same,TGI,OVCAR-8 ovarian,> 100 µM
same,GI50,SR leukemia,> 100 µM
same,TGI,SR leukemia,> 100 µM
same,GI50,SW-620 colon,> 100 µM
same,TGI,SW-620 colon,> 100 µM
same,GI50,OVCAR-3 ovarian,> 100 µM
same,TGI,OVCAR-3 ovarian,> 100 µM
same,GI50,CCRF-CEM leukemia,> 100 µM
same,TGI,CCRF-CEM leukemia,> 100 µM
same,GI50,DLD-1 colon,> 100 µM
same,TGI,DLD-1 colon,> 100 µM
same,GI50,786-0 renal,> 100 µM
same,TGI,786-0 renal,> 100 µM
same,GI50,NCI-H226 lung,> 100 µM
same,TGI,NCI-H226 lung,> 100 µM
same,GI50,LXFL 529 NSCLC,> 100 µM
same,TGI,LXFL 529 NSCLC,> 100 µM
same,GI50,HL-60(TB) leukemia,> 100 µM
same,TGI,HL-60(TB) leukemia,> 100 µM
same,GI50,HCT-15 colon,> 100 µM
same,TGI,HCT-15 colon,> 100 µM
same,GI50,DMS 273 small cell lung,> 100 µM
same,TGI,DMS 273 small cell lung,> 100 µM
same,GI50,RPMI-8226 leukemia,> 100 µM
same,TGI,RPMI-8226 leukemia,> 100 µM
